Data set [1] relates to human colon cancer cells HCT-116. In words: MTT growth inhibition of human cancer and normal cells (Part 2). Type of data set: cell-based. The following applies: Homo sapiens; HCT-116, 48 h, 0 to 80 μM. As for the experimental part: (§1) Growth inhibition of human cancer and normal cells. Cell growth inhibition was determined by a MTT colorimetric assay. Human colon cancer cells HCT-116, human lung cancer cells H-1299, human colon fibroblast cells CCD-18Co, and human lung fibroblast cells IMR-90 were plated in 96-well microtiter plates with 3000 cells/well and allowed to attach for 24 h at 37° C. […] After the cells were cultured for 48 h, the medium was aspirated and cells were treated with 200 μL fresh medium containing 2.41 mmol/L MTT. […] The reading reflected the number of viable cells and was expressed as a percentage of viable cells in the control. Both HCT-116 and H-1299 cells were cultured in McCoy's 5A medium. CCD-18Co and IMR-90 cells were cultured in Eagle's modified essential medium (EMEM). All of the above media were supplemented with 10% fetal bovine serum, 1% penicillin/streptomycin, and 1% glutamine, and the cells were kept in a 37° C. incubator with 95% humidity and 5% CO2.

Data set [2] has as its system human lung cancer cells H-1299. The data set is described as above. The data set is classed as cell-based. The note with it: Homo sapiens, NCI-H1299; H-1299, 48 h, 0 to 80 μM. As for the experimental part:
as §1

Data set [3] can be described thus: in vitro. The data set is classed as cell-based, human. The note with it: human. As for the experimental part:
as §1

Data set [4] can be described thus: in vitro. Type of data set: cell-based, human. The following applies: human. As to the method: as §1
The source holds these as a separate data set.

A further data set concerns H-1299 cells. In words: TUNEL apoptosis assay (Part 2). The note with it: H-1299, 20 or 40 μM, 24 hours. The data set is classed as cell-based, human. As to the method: (§2) HCT-116 and H1299 cells were seeded in 6-well plates at 1×10^5 cells/well and incubated at 37° C. in 5% CO2 incubator. After 24 hours, fresh media supplemented with DMSO (control), [6]-shogaol, M2, M6, or M13 metabolites (20 μM or 40 μM) were added to the wells. After 6 or 24 hours incubation at 37° C. in 5% CO2 incubator, cells were washed and pre-treated for 15 min at room temperature with a solution of 20 μg/ml proteinase K. Cells were then washed twice with phosphate buffer saline pH 7.4 (PBS) and fixed for 10 min at room temperature using 10% neutral formaldehyde solution. After 2 washes in ddH2O, cells were resuspended in 100 μL ddH2O and applied on silanized microscope slides. Slides were incubated overnight at 37° C., and washed twice with PBS. TUNEL assay was then carried out according to the manufacturer's protocol. Cells were observed under 400× power using a Zeiss microscope A1 (Thornwood, N.Y.). 10 fields per slide were evaluated, and TUNEL+ cells (with brown coloration in the nucleus) were expressed as a percentage of the total number of cells contained in a field.

A further data set concerns HCT-116 cells. The experiment in a line: TUNEL apoptosis assay (Part 2). The note with it: HCT-116, 20 or 40 μM, 24 hours. Type of data set: cell-based, human. As to the method: as §2
The nature of data set [5]: Kinetic study of [6]-shogaol metabolism to M6 in liver microsomes. The note with it: human. As for the experimental part: To estimate kinetic parameters of metabolism of [6]-shogoal to major product M6 in liver microsomes from human and other species, the incubation conditions were optimized to ensure that formation rate of M6 was in the linear range in relation to incubation time and protein concentration. [6]-Shogaol (7.81, 15.63, 31.25, 62.5, 125, 250, 500, 1000, and 2000 μM) was incubated with liver microsomes from mouse (MLM), rat (RLM), dog (DLM), monkey (CyLM), and human (HLM) (0.1 mg/mL each, respectively) for 30 minutes. All incubations were performed in triplicate. The apparent Km and Vmax values were calculated from analysis of experimental data according to the Michaelis-Menten equation, and the results were graphically represented (for HLM) by an Eadie-Hofstee plot. Kinetic constants were reported as the value+/−S.E. of the parameter estimate.

Experiment in data set [6]: as above
The data set is classed as in vitro ADME, monkey. The note with it: cynomolgus, monkey. As for the experimental part:
(§3) All incubations were performed in triplicate.

Experiment in data set [7]: as above
The following applies: dog liver microsomes 0.1 mg/mL, 30 min. Type of data set: in vitro ADME. As for the experimental part:
as §3

Experiment in data set [8]: as above
The data set is classed as in vitro ADME, rat. The following applies: rat. As to the method:
as §3

Experiment in data set [9]: as above
Type of data set: in vitro ADME, mouse. The note with it: mouse. As for the experimental part:
as §3

SMILES strings stand for the structures.

For the molecule `CCCCCC=CC(O)CCc1ccc(O)c(OC)c1` (centres unmarked) [M6, 1-(4′-hydroxy-3′-methoxyphenyl)-4-decen-3-ol], the IC50 in data set [1] was 68.8 µM; in data set [2] it was 61.3 µM. Further, the IC50 at 48 h in the data set “in vitro [3]” and in “in vitro [4]” was greater than 100 µM throughout. Also, the “induction of apoptosis (TUNEL) versus DMSO” value in the data set with H-1299 cells and in the data set with HCT-116 cells was “did not display any apoptotic effect” throughout. For the same molecule, the “Vmax of M6 formation” value in data set [5] was 10.82 +/− 0.47 nanomoles per minute per milligram liver microsomes; in [6], 2.99 +/− 0.28 nanomoles per minute per milligram liver microsomes; in [7], 7.33 +/− 0.43 nanomoles per minute per milligram liver microsomes; in data set [8], 8.19 +/− 0.48 nanomoles per minute per milligram liver microsomes; in data set [9], 4.10 +/− 0.19 nanomoles per minute per milligram liver microsomes.

The record behind these values is patent US9549911B2, “Ginger metabolites and uses thereof” (North Carolina A&T State University, priority 2012, dated 2017).
